Source: US11730716B2, “Compounds for treating ophthalmic diseases and disorders” (priority 2014, dated 2023)

Columns and labels:
intraocular tissues = test: Local tolerability of intravitreal injections of PP-001 in rat eyes; type: in vivo; settings: high dose PP-001 (150 μg/ml, 10 μl intravitreal); 8 days
Method: For this purpose, three different doses of PP-001, dissolved in phosphate-buffered saline (PBS) and a vehicle control with PBS only were injected into the posterior chamber (=vitreous) of rat eyes. The eyes (anterior chamber) were examined daily with an ophthalmoscope and after 8 days the experiment was terminated, and the eyes processed for histology (cryosections).
8 Lewis rats (age 7-8 weeks) were anesthetized using 0.5 mg/kg medetomidine s.c. Additional topical anesthesia with 0.4% oxybuprocaine eye drops was applied. After intraocular injection sedation was antagonized with an s.c. injection of 2.5 mg/kg atipamezol.
10 μl of solution were injected into the vitreous of both eyes with a 30 G needle, controlled under an operation microscope. The perpendicular injection is penetrating the […] and should neither touch the lens or the retina. After injection an antibiotic ointment was applied to the eyes to avoid infections.
PP-001 was dissolved in PBS and applied intravitreally in 3 different concentrations.
Group 1, Rat 1-1 and 1-2: 10 μl PBS (vehicle control)

[1] = tested on: experimental autoimmune uveitis (EAU); test: Prevention of relapses in the experimental autoimmune uveitis (EAU) rat model, R14-induced, intravitreal injection; type: in vivo, Lewis rats
Excerpt: Experimental autoimmune uveitis (EAU) in Lewis rats is a model for human endogenous uveitis. The disease is mediated by CD4+ T lymphocytes of the T helper 1 (Th1) and Th17 subtypes. In Lewis rats the disease was induced by immunizing animals with retinal antigens such as interphotoreceptor retiniod-binding protein (IRBP) and adjuvant. IRBP is also considered to be an autoantigen in humans. Peptide R14, a 23mer from IRBP, is the most pathogenic epitope for Lewis rats. Immunization with these peptides emulsified in Complete Freund's Adjuvant (CFA) leads to severe inflammation of the anterior chamber of the eyes and destruction of the retinal architecture. R14 causes a relapsing-remitting disease with an early onset (about day 7), the peak of EAU between day 10 to 14 and the remission around day 17/18. 20 rats were immunized with 15 μg IRBP-peptide R14 emulsified in complete Freund's adjuvant. After primary disease, PP-001 was injected intravitreally at day 18 (6 μl=3 μg PP-001) in both eyes of 10 animals. One eye in this group dropped out because of penetrating the eye during injection. 10 animals received 6 μl PBS intravitreally in both eyes as control group. Clinical grade of inflammation in the anterior chamber was determined daily.

[2] = tested on: choroidal neovascularization; test: Inhibition of choroidal neovascularization in PDSAg-induced EAU rat model; type: in vivo, Lewis rats
Excerpt: Choroidal neovascularization is a known feature of posterior uveitis and a major cause of retinal destruction and loss of vision. To monitor the effect of PP-001 on neovascularization, the EAU model in Lewis rats was used. In Lewis rats the disease was induced by immunizing animals with retinal antigen PDSAg, a 14mer derived from S—Ag. Immunization with that peptide emulsified in Complete Freund's Adjuvant (CFA) leads to severe inflammation of the anterior chamber of the eyes and destruction of the retinal architecture and choroidal neovascularization Induction with PDSAg causes a monophasic disease with first clinical signs of inflammation observed between day 8 and 12 after immunization and reaching the peak of disease between day 14 and 18. Inflammation in the anterior chamber subsides until day 21 to 22 post immunization. Long term effects such as choroidal neovascularization are seen at the later stages of the disease after the inflammation of the anterior chamber has subsided. 18 Lewis rats were immunized with PDSAg. Starting at the beginning of the disease (day 9 post immunization) 6 animals were treated with PP-001 and 6 animals were treated with vehicle control. […] Post day 25 experiment was stopped and 12 eyes for each treatment group were histological analyzed for the presence of choroidal neovascularizations.

[3] = tested on: vascular endothelial growth factor (VEGF); test: Cellular protein expression of VEGF in antigen-stimulated rat lymph node/T cell cultures (Luminex multiplex cytokine assay); type: cell-based; settings: 3 μM, 10 μM and 30 μM; supernatants after 24 h
Method: Rats were immunized with 25 μg of the respective peptide as previously described.
After 10 to 12 days popliteal, inguinal and para-aortal lymph nodes (LN) were collected, single cell suspensions were stimulated with the respective antigen peptides at a final concentration of 10 μg/ml RPMI1640, supplemented with Penicillin/Streptomycin, L-Glutamine, essential and non-essential amino acids (all 4 from PAA, Colebee, Germany), 12.5 μM […] and 1% normal rat serum. After 3 days the cells were expanded in culture medium supplemented with 10% spleen conditioned medium (from Concanavalin A-stimulated rat spleen cells) and 5% fetal calf serum (FCS) for 4 days.
For restimulation 0.5-2×10^6 T cells/ml were incubated with irradiated (8 Gy) rat thymocytes (3-10 fold more than T cells) as antigen-presenting cells (APC) and 10 μg/ml of the specific antigen peptide in culture medium as described for the first stimulation. After two days of culturing cells were expanded with conditioned medium for 5 days as described above, followed by another cycle of restimulation and expansion. […]

Ad5 McEwen = test: Experimental adenoviral ocular infection (Ad5/NZW rabbit ocular model), eye drops, plaque assay on A549 monolayers; type: in vivo
Method: 25 New Zealand White rabbits were inoculated in both eyes following general anesthesia with ketamine and xylazine, topical anesthesia with proparacaine, and corneal scarification (12 cross-hatched strokes of a #25 needle) with 50 μl of 3.0×10^7 PFU/ml (1.5×10^6 PFU/eye) of Ad5 McEwen (Stock 1/17/08, 4.08×10^8 PFU/ml). Eyes were closed and gently rubbed for 5 seconds to ensure contact of the virus on all ocular surfaces.
At least 3 h after inoculation, all eyes were cultured for virus. Following topical anesthesia with proparacaine, a single cotton-tipped swab was placed into the lower fornix of each eye, rolled over the cornea into the upper fornix to recover adenovirus from the tear film and corneal and conjunctival surfaces. The swabs from each eye were placed individually into tubes containing 1 ml of outgrowth media and were frozen at −70° C. pending plaque assay.
On day 1, the rabbits were divided into 5 treatment groups outlined in the chart below. The five treatment groups consisted of a vehicle control, 0.16% PP-001 8 times, 6 times, and 4 times daily for 10 days, and the positive antiviral control 0.5% cidofovir (CDV).
Begin of treatment on day 1. Drops were administered with at least a 45 min interval between drops. All eyes from all groups were cultured for virus on days 1, 3, 4, 5, 7, 9, 11, and 14 PI at least 1 h after the final doses of the treatments described above. At various times during the course of the experiment, Ad5 titers were determined on A549 cell monolayers using standard plaque assays. The ocular cultures to be titered were thawed, diluted (1:10) and inoculated onto A549 monolayers. The virus was adsorbed for 3 h. Following adsorption, 1 ml of media plus 0.5% methylcellulose was added to each well, and the plates were incubated at 37° C. in a 5% […] atmosphere. After 7 days incubation, the cells were stained with 0.5% gentian violet, and the number of plaques were counted under a dissecting microscope (25×). The viral titers were then calculated, and expressed as plaque-forming units per milliliter (PFU/ml). […]

dry eye syndrome = type: in vivo
Method: The aim of the study was to evaluate the tolerability and therapeutic potential of PP-001 in a murine model of dry eye syndrome.
Dry eye symptoms were induced in forty (40) pigmented C57BL/6N mice by exposing them to a controlled environment (relative humidity<25%, air-flow 15 L/min, temperature 20-22° C.) and systemic scopolamine administration (0.5 mg/72 h) for 10 days.
Mice were randomized into 4 groups of 10 animals and treated with PP-001, Restasis®, placebo and the forth group remained untreated.
Tear production and corneal defects were evaluated on days 3, 7 and 10 using phenol red thread and fluorescence staining in each of the four groups.
Preparation of Eye Drop Solutions:
Placebo eye drops: A solution containing 20 mg/ml polyvinylpyrrolidone, 10 mg/ml glycerol 85%, 2 mg/ml hydroxypropyl methylcellulose in sodium phosphate buffer adjusted to pH 7.
PP-001 eye drops: A solution containing 1.6 mg/ml PP-001, 20 mg/ml polyvinylpyrrolidone, 10 mg/ml glycerol 85%, 2 mg/ml hydroxypropyl methylcellulose in sodium phosphate buffer adjusted to pH 7.
Positive control: Restasis® (cyclosporine ophthalmic emulsion from Allergan)

in vivo = test: in vivo; parameters: species or system Dutch Belted rabbits; settings: male, Dutch Belted, rabbit, topical or ocular; for half-life: t1/2
Method: 36 male Dutch Belted rabbits were divided in […]: 16 animals each in group 1 and 2 received 0.0625 mg and 0.125 mg PP-001 per eye, 4 animals were administered with dose vehicle (sucrose solution) only. At designated time points animals were sacrificed and vitreous humor, retina, and choroid were collected from both eyes of each animal and weighed. Samples were analysed for PP-001 concentration using a specific HPLC/MS/MS analytical method and PK parameters were calculated with Phoenix WinNonlin software (v6.3) using a non-compartmental model with sparse sampling.
Animals were anesthetized with an intramuscular injection of ketamine hydrochloride (30 mg/kg) and xylazine (5 mg/kg) for the injection procedure.
The study director performed the IVT injection in both eyes (OU). Topical ocular anesthetics were used per ASI SOPs.
The eyes and surrounding tissues were cleaned and disinfected with 2% betadine ophthalmic solution and then rinsed with basic salt solution (BSS). Using a 30 gauge needle with length no greater than ⅝ inch, injections were made 5 to 7 mm from the limbus (where the cornea meets the sclera). Once inserted, the PP-001 or vehicle control was injected at a volume of 25 μL per eye. The needle was then removed and the eye rinsed with BSS.
Vitreous humor and choroid/sclera/retina were collected from both eyes of each animal at the designated time point and analyzed for PP-001 concentration using a specific HPLC/MS/MS analytical method.

[4] = tested on: retinal and choroidal tissue; test: Tolerability of intravitreal injections of PP-001 solutions in Dutch Belted rabbits; type: in vivo; settings: intravitreal 0.0625 or 0.125 mg/eye

## O=C(Nc1c(F)c(F)c(-c2cccc(OC(F)(F)F)c2)c(F)c1F)c1ccsc1C(=O)O [PP-001, 3-(2,3,5,6-tetrafluoro-3′-trifluoromethoxy-biphenyl-4-ylcarbamoyl)-thiophene-2-carboxylic acid]
Intraocular tissues
  eyes completely normal: 2 of 4
[1]; single intravitreal injection at day 18, 3 μg per eye, compared to placebo group
  time to the appearance of the first relapse: delayed
[1]; single intravitreal injection at day 18, 6 μl = 3 μg per eye, vs PBS control
  reduction of the number of relapses: > 50%
[2]; treatment started at beginning of uveitis (day 9 post immunization), vs vehicle, p<0.005
  reduction of number of choroidal neovascularizations (factor): 3
[2]; treatment started at day 15 (peak of disease), vehicle mean 6, p<0.05
  mean number of choroidal neovascularizations: 3
[3]
  protein expression of VEGF: reduced
Ad5 McEwen; 0.16% PP-001 8 times and 6 times per day vs 4 times per day, 10 days
  dose response of antiviral efficacy: more efficacious than 0.16% PP-001 instilled 4 times per day for 10 days
Ad5 McEwen; 0.16% PP-001 eye drops, 4-8 times daily for 10 days
  safety as topical antiviral agent: safe
Ad5 McEwen; 0.16% PP-001 eye drops, Ad5 titers PFU/ml
  antiviral efficacy (topical): efficacious
Dry eye syndrome; Day 10
  corneal staining compared to placebo treatment: reduced
Dry eye syndrome; Day 10, multiple instillations
  corneal staining in comparison to the induced untreated group: reduced significantly
Dry eye syndrome; multiple topical administrations of PP-001 1.6 mg/mL
  corneal surface damage: reduced corneal surface damage comparable to Restasis®
In vivo; 0.0625 mg
  Cmax: 33.2 µg/g
  t1/2: 14.5 h
  half-life: 14.3 h
In vivo; 0.0625 mg, Cmax
  Cmax: 25.7 µg/g
In vivo; 0.125 mg
  Cmax: 56.9 µg/g
  t1/2: 13.1 h
  half-life: 21.4 h
In vivo; 0.125 mg, Cmax
  Cmax: 61.5 µg/g
[4]
  effect on the retinal and choroidal tissue: did not have any significant effect
